Experimental data from patent publication US5013841A, “Oxo quinoline derivatives” (Dainippon Pharmaceutical Co., Ltd., priority 1987, dated 1991).
In brackets after ≈: the same amount, converted by molar mass. Where two headings read alike, the source gives them in different places.

How the values were obtained:
P. Aeruginosa 12 = experiment: In vitro antibacterial activity (twofold agar-dilution method); assay type: cell-based; conditions: Pseudomonas aeruginosa, 20 h, read-out: minimum inhibitory concentration (MIC)
Protocol: (§1) The figures in the table show minimum inhibitory concentrations (MIC) (μg/ml), calculated for free base. The minimum inhibitory concentration was determined by the twofold agar-dilution method, which was recommended by Japan Society of Chemotherapy (Chemotherapy, 29(1), 76(1981)), using Muller-Hinton agar. One loopful of an overnight culture of test organisms in Mueller-Hinton broth was inoculated onto 10-ml drug-containing agar layers in petri dishes. Bacterial inocula contained approximately 10^6 colonyl-formingunits. Bacterial growth was observed after 20-hour incubation at 37° C. The MIC was defined as the lowest drug concentration which prevented visible bacterial growth.

S. aureus No. 80 = experiment: as above; assay type: cell-based; conditions: Staphylococcus aureus; S. aureus No. 80; agar dilution, 20 h, 37° C., calculated for free base; read-out: minimum inhibitory concentration (MIC)
Protocol: as §1

S. marcescens IFO 3736 = experiment: as above; assay type: cell-based; conditions: Serratia marcescens, IFO3736; S. marcescens IFO 3736; agar dilution, 20 h, 37° C., calculated for free base; read-out: minimum inhibitory concentration (MIC)
Protocol: as §1

S. pyogenes Cook = experiment: as above; assay type: cell-based; conditions: Streptococcus pyogenes, 20 h, 37° C., calculated for free base, read-out: minimum inhibitory concentration (MIC)
Protocol: as §1

M. pneumoniae Mac = experiment: Antimycoplasma activity (twofold agar dilution method); assay type: cell-based, Mycoplasma pneumoniae; conditions: Mycoplasmoides pneumoniae, 168 h; M. pneumoniae Mac; Chanock agar, 37° C., 7 days, aerobic, calculated for free base; read-out: minimum inhibitory concentration (MIC)
Protocol: The figures in the table show minimum inhibitory concentrations (MIC), (μg/ml), calculated for free base.
Minimum inhibitory concentrations (MIC) were determined by the twofold agar dilution method. The media used were Chanock broth and agar PPLD broth and agar (Difco) supplemented with 20% horse serum and 10% fresh yeast extract). A 2-3 day broth culture of organisms was diluted with Chanock broth to a cell density of about 10^6 cells/ml. One loopful (about […]) of the organism dilution was spotted onto 10-ml drug containing Chanock agar in petri dishes using a multiple inoculator (Cathra International). The petri dishes were incubated at 37° C. for 7 and 2 days for Mycoplasma pneumoniae and other Mycoplasma spp. respectively. Incubation was performed anaerobically using the Gaspak anaerobic system (BBL) for M. buccale, M. fermentans, M. hominis, M. orale and M. salivarium, and aerobically for other Mycoplasma spp. The MIC was defined as the lowest compound concentration at which no growth of organism was detected.

[1] = Acute oral toxicity in mice; conditions: mouse, in vivo, male mice (ddY), 7 days, Behrens-Kaerber method, read-out: median lethal dose (LD50)
Protocol: A suspension containing each of compounds of this invention in various concentrations was orally given to male mice (ddY) at a dose of 0.1 ml per 10 g of body weight. The number of dead mice was counted after 7 days, and the value of median lethal dose (LD50, mg/kg) was calculated in accordance with the Behrens-Kaerber method.

[2] = tested on: Staphylococcus aureus 50774; assay type: in vivo, Staphylococcus aureus (male mice, Std-ddY); conditions: Staphylococcus aureus, 50774, 336 h; mice, oral, twice (immediately and 6 h after intravenous infection), 14 days, calculated for free base; read-out: median effective dose (ED50)
From the text: Staphylococcus aureus 50774
Intravenous infection with 5×10^8 cells per mouse suspended in saline.
For 7 days for other organisms.

[3] = tested on: Streptococcus pneumoniae 1 Neufeld; assay type: in vivo, Streptococcus pneumoniae (male mice, Std-ddY); conditions: 336 h, mice, oral, four times (immediately, 6, 24 and 30 h after intraperitoneal infection), 14 days, calculated for free base, read-out: median effective dose (ED50)
[4] = Urinary excretion in mice (thin-layer cup-plated method, Escherichia coli Kp indicator); assay type: in vivo; conditions: mouse, urine, oral, 5 mg/kg, read-out: Urinary recovery for 24 hours
Protocol: A suspension containing each of compounds was orally administered to mice at a dose of 5 mg/kg. Urine was collected over a period of 24 hours after adminstration. The levels of the compounds in urine were determined by the thin-layer cup-plated method using Escherichia coli Kp as an indicator organism.

[5] = tested on: Streptococcus pyogenes A65; conditions: A65, in Mus musculus, po, 168 h, read-out: median effective dose (ED50)
[6] = tested on: Pseudomonas aeruginosa 12; conditions: Pseudomonas aeruginosa, 12, in Mus musculus, po, 168 h, read-out: median effective dose (ED50)

| SMILES | MIC (P. Aeruginosa 12; P. Aeruginosa 12, agar dilution, 37° C., calculated for free base) | MIC (S. aureus No. 80) | MIC (S. marcescens IFO 3736) | MIC (S. pyogenes Cook) | MIC (M. pneumoniae Mac) | LD50 at 168 h [1] | MIC (P. Aeruginosa 12) | ED50 [2] | ED50 [3] | dose excreted at 24 h [4] | ED50 [5] | ED50 [6] |
| --- | --- | --- | --- | --- | --- | --- | --- | --- | --- | --- | --- | --- |
| Nc1c(F)c(N2CCNCC2)cc2c1c(=O)c(C(=O)O)cn2C1CC1 [Compound 1] | 0.05 mg/L (≈ 0.144 µM) | 0.05 mg/L (≈ 0.144 µM) | 0.1 mg/L (≈ 0.289 µM) | 0.2 mg/L (≈ 0.577 µM) | 0.1 mg/L (≈ 0.289 µM) | > 2000 mg/kg | – | – | – | – | – | – |
| C[C@@H]1CN(c2cc3c(c(N)c2F)c(=O)c(C(=O)O)cn3C2CC2)C[C@H](C)N1 [Compound 2, 5-amino-1-cyclopropyl-6-fluoro-7-(cis-3,5-dimethyl-1-piperazinyl)-1,4-dihydro-4-oxoquinoline-3-carboxylic acid] | – | 0.025 mg/L (≈ 0.0668 µM) | 0.78 mg/L (≈ 2.08 µM) | 0.39 mg/L (≈ 1.04 µM) | 0.1 mg/L (≈ 0.267 µM) | > 2000 mg/kg | 0.39 mg/L (≈ 1.04 µM) | 1.41 mg/kg | 10.2 mg/kg | 8.33% | 11.6 mg/kg | 1.98 mg/kg |
